{
  "source": "patent US20120083522A1",
  "about": "“MODULATION OF INFLAMMATORY RESPONSES BY FACTOR XI” (Isis Pharmaceuitcals, inc., priority 2009, published 2012)",
  "key": {"[1]": {"test_system": "human Factor XI mRNA", "test": "Antisense inhibition in HepG2 cells by microwalk gapmers, 75 nM, lipofectin (Example 3)", "assay_type": "cell-based", "details": "HepG2 cells, 75 nM, oligonucleotides targeted to nucleobases 1275 to 1318 of SEQ ID NO: 1", "how_it_was_run": "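HepG2 cells (10,000 per well) were transfected with 75 nM gapmer using lipofectin and treated for about 24 h. Factor XI mRNA was quantified by real-time PCR, normalized to RiboGreen total RNA and expressed as percent inhibition versus untreated controls.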"}, "[2]": {"test": "Tolerability in Sprague-Dawley rats: kidney function (Example 19)", "assay_type": "in vivo", "details": "Sprague Dawley rats; for urine protein/creatinine ratio, After: after 50 mg/kg s.c. twice per week for 6 weeks; for urine protein/creatinine ratio, Before: before antisense oligonucleotide treatment", "description": "(§1) Urine samples were taken before the start of treatment."}, "[3]": {"test": "Tolerability in Sprague-Dawley rats: body and organ weight (Example 19)", "assay_type": "in vivo", "details": "50 mg/kg s.c. twice per week for 6 weeks, change over weight at start of study", "description": "as §1\nThe body weights are presented in Table 78 and are expressed as a percent change over the weights taken at the start of the study."}, "[4]": {"test_system": "human Factor XI mRNA", "test": "Dose-dependent inhibition in HepB3 cells, electroporation (Example 7)", "assay_type": "cell-based", "details": "approx. 16 h", "procedure": "The gapmers were also transfected via electroporation and their dose dependent inhibition of human Factor XI mRNA was measured. Cells were plated at a density of 20,000 cells per well and transfected via electroporation with 41.15 nM, 123.457 nM, 370.37 nM, 1111.11 nM, 3333.33 nM, and 10,000 nM concentrations of antisense oligonucleotide, as specified in Table 15. After a treatment period of approximately 16 hours, RNA was isolated from the cells and human Factor XI mRNA levels were measured by quantitative real-time PCR. Human Factor XI primer probe set RTS 2966 was used to measure mRNA levels. Factor XI mRNA levels were adjusted according to total RNA content, as measured by RIBOGREEN®. Results are presented as percent inhibition of human Factor XI, relative to untreated control cells."}, "[5]": {"test_system": "human Factor XI mRNA", "test": "Dose-dependent inhibition in HepG2 cells, lipofectin (Example 5)", "assay_type": "cell-based", "details": "16 hours", "procedure": "Cells were plated at a density of 10,000 cells per well and transfected using lipofectin reagent with 2.34 nM, 4.69 nM, 9.375 nM, 18.75 nM, 37.5 nM, and 75 nM concentrations of antisense oligonucleotide, as specified in Table 11. After a treatment period of approximately 16 hours, RNA was isolated from the cells and human Factor XI mRNA levels were measured by quantitative real-time PCR. Human Factor XI primer probe set RTS 2966 was used to measure mRNA levels. Factor XI mRNA levels were adjusted according to total RNA content, as measured by RIBOGREEN®. Results are presented as percent inhibition of human Factor XI, relative to untreated control cells."}},
  "data": [
    {"substance": "416864 (antisense GGCAGCGGACGGCATTGGTG; 5-10-5 gapmer, wing sugar chemistry not given here, further chemistry not given here) [compound 416864]", "values": [
      {"measurement": "% inhibition of human Factor XI mRNA levels", "setting": "[1]", "result": 93, "unit": "%"},
      {"measurement": "urine protein/creatinine ratio, After", "setting": "[2]", "result": 4.0},
      {"measurement": "urine protein/creatinine ratio, Before", "setting": "[2]", "result": 1.2},
      {"measurement": "Percent change in Body weight", "setting": "[3]", "result": "−24", "unit": "%"},
      {"measurement": "percent inhibition of human Factor XI mRNA", "setting": "[4]; 41.15 nM", "result": 4, "unit": "%"},
      {"measurement": "percent inhibition of human Factor XI mRNA", "setting": "[4]; 123.457 nM", "result": 3, "unit": "%"},
      {"measurement": "percent inhibition of human Factor XI mRNA", "setting": "[4]; 370.37 nM", "result": 6, "unit": "%"},
      {"measurement": "percent inhibition of human Factor XI mRNA", "setting": "[4]; 1111.11 nM", "result": 35, "unit": "%"},
      {"measurement": "percent inhibition of human Factor XI mRNA", "setting": "[4]; 3333.33 nM", "result": 75, "unit": "%"},
      {"measurement": "percent inhibition of human Factor XI mRNA", "setting": "[4]; 10000 nM", "result": 87, "unit": "%"},
      {"measurement": "percent inhibition of human Factor XI mRNA, relative to untreated control cells", "setting": "[5]; 2.34 nM", "result": 13, "unit": "%"},
      {"measurement": "percent inhibition of human Factor XI mRNA, relative to untreated control cells", "setting": "[5]; 4.69 nM", "result": 34, "unit": "%"},
      {"measurement": "percent inhibition of human Factor XI mRNA, relative to untreated control cells", "setting": "[5]; 9.375 nM", "result": 42, "unit": "%"},
      {"measurement": "percent inhibition of human Factor XI mRNA, relative to untreated control cells", "setting": "[5]; 18.75 nM", "result": 65, "unit": "%"},
      {"measurement": "percent inhibition of human Factor XI mRNA, relative to untreated control cells", "setting": "[5]; 37.5 nM", "result": 68, "unit": "%"},
      {"measurement": "percent inhibition of human Factor XI mRNA, relative to untreated control cells", "setting": "[5]; 75 nM", "result": 80, "unit": "%"}
    ]},
    {"substance": "416925 (antisense GGTGCACAGTTTCTGGCAGG; 3-14-3 chimeric gapmer, wing sugar chemistry not given here, further chemistry not given here) [compound 416925]", "values": [
      {"measurement": "% inhibition of human Factor XI mRNA levels", "setting": "[1]", "result": 98, "unit": "%"},
      {"measurement": "urine protein/creatinine ratio, After", "setting": "[2]", "result": 4.3},
      {"measurement": "urine protein/creatinine ratio, Before", "setting": "[2]", "result": 1.0},
      {"measurement": "Percent change in Body weight", "setting": "[3]", "result": "−32", "unit": "%"},
      {"measurement": "percent inhibition of human Factor XI mRNA", "setting": "[4]; 41.15 nM", "result": 27, "unit": "%"},
      {"measurement": "percent inhibition of human Factor XI mRNA", "setting": "[4]; 123.457 nM", "result": 39, "unit": "%"},
      {"measurement": "percent inhibition of human Factor XI mRNA", "setting": "[4]; 370.37 nM", "result": 50, "unit": "%"},
      {"measurement": "percent inhibition of human Factor XI mRNA", "setting": "[4]; 1111.11 nM", "result": 73, "unit": "%"},
      {"measurement": "percent inhibition of human Factor XI mRNA", "setting": "[4]; 3333.33 nM", "result": 88, "unit": "%"},
      {"measurement": "percent inhibition of human Factor XI mRNA", "setting": "[4]; 10000 nM", "result": 96, "unit": "%"},
      {"measurement": "percent inhibition of human Factor XI mRNA, relative to untreated control cells", "setting": "[5]; 2.34 nM", "result": 24, "unit": "%"},
      {"measurement": "percent inhibition of human Factor XI mRNA, relative to untreated control cells", "setting": "[5]; 4.69 nM", "result": 34, "unit": "%"},
      {"measurement": "percent inhibition of human Factor XI mRNA, relative to untreated control cells", "setting": "[5]; 9.375 nM", "result": 45, "unit": "%"},
      {"measurement": "percent inhibition of human Factor XI mRNA, relative to untreated control cells", "setting": "[5]; 18.75 nM", "result": 56, "unit": "%"},
      {"measurement": "percent inhibition of human Factor XI mRNA, relative to untreated control cells", "setting": "[5]; 37.5 nM", "result": 67, "unit": "%"},
      {"measurement": "percent inhibition of human Factor XI mRNA, relative to untreated control cells", "setting": "[5]; 75 nM", "result": 72, "unit": "%"}
    ]},
    {"substance": "416999 (antisense GCACAGTTTCTGGCAGGCCT; 2-13-5 gapmer, wing sugar chemistry not given here, further chemistry not given here) [compound 416999]", "values": [
      {"measurement": "% inhibition of human Factor XI mRNA levels", "setting": "[1]", "result": 92, "unit": "%"},
      {"measurement": "urine protein/creatinine ratio, After", "setting": "[2]", "result": 9.1},
      {"measurement": "urine protein/creatinine ratio, Before", "setting": "[2]", "result": 1.3},
      {"measurement": "Percent change in Body weight", "setting": "[3]", "result": "−37", "unit": "%"},
      {"measurement": "percent inhibition of human Factor XI mRNA", "setting": "[4]; 41.15 nM", "result": 31, "unit": "%"},
      {"measurement": "percent inhibition of human Factor XI mRNA", "setting": "[4]; 123.457 nM", "result": 45, "unit": "%"},
      {"measurement": "percent inhibition of human Factor XI mRNA", "setting": "[4]; 370.37 nM", "result": 62, "unit": "%"},
      {"measurement": "percent inhibition of human Factor XI mRNA", "setting": "[4]; 1111.11 nM", "result": 78, "unit": "%"},
      {"measurement": "percent inhibition of human Factor XI mRNA", "setting": "[4]; 3333.33 nM", "result": 94, "unit": "%"},
      {"measurement": "percent inhibition of human Factor XI mRNA", "setting": "[4]; 10000 nM", "result": 97, "unit": "%"},
      {"measurement": "percent inhibition of human Factor XI mRNA, relative to untreated control cells", "setting": "[5]; 2.34 nM", "result": 10, "unit": "%"},
      {"measurement": "percent inhibition of human Factor XI mRNA, relative to untreated control cells", "setting": "[5]; 4.69 nM", "result": 26, "unit": "%"},
      {"measurement": "percent inhibition of human Factor XI mRNA, relative to untreated control cells", "setting": "[5]; 9.375 nM", "result": 42, "unit": "%"},
      {"measurement": "percent inhibition of human Factor XI mRNA, relative to untreated control cells", "setting": "[5]; 18.75 nM", "result": 62, "unit": "%"},
      {"measurement": "percent inhibition of human Factor XI mRNA, relative to untreated control cells", "setting": "[5]; 37.5 nM", "result": 72, "unit": "%"},
      {"measurement": "percent inhibition of human Factor XI mRNA, relative to untreated control cells", "setting": "[5]; 75 nM", "result": 80, "unit": "%"}
    ]},
    {"substance": "417002 (antisense GGTGCACAGTTTCTGGCAGG; 2-13-5 gapmer, wing sugar chemistry not given here, further chemistry not given here) [compound 417002]", "values": [
      {"measurement": "% inhibition of human Factor XI mRNA levels", "setting": "[1]", "result": 92, "unit": "%"},
      {"measurement": "urine protein/creatinine ratio, After", "setting": "[2]", "result": 2.4},
      {"measurement": "urine protein/creatinine ratio, Before", "setting": "[2]", "result": 1.0},
      {"measurement": "Percent change in Body weight", "setting": "[3]", "result": "−29", "unit": "%"},
      {"measurement": "percent inhibition of human Factor XI mRNA", "setting": "[4]; 41.15 nM", "result": 19, "unit": "%"},
      {"measurement": "percent inhibition of human Factor XI mRNA", "setting": "[4]; 123.457 nM", "result": 0, "unit": "%"},
      {"measurement": "percent inhibition of human Factor XI mRNA", "setting": "[4]; 370.37 nM", "result": 31, "unit": "%"},
      {"measurement": "percent inhibition of human Factor XI mRNA", "setting": "[4]; 1111.11 nM", "result": 47, "unit": "%"},
      {"measurement": "percent inhibition of human Factor XI mRNA", "setting": "[4]; 3333.33 nM", "result": 86, "unit": "%"},
      {"measurement": "percent inhibition of human Factor XI mRNA", "setting": "[4]; 10000 nM", "result": 93, "unit": "%"},
      {"measurement": "percent inhibition of human Factor XI mRNA, relative to untreated control cells", "setting": "[5]; 2.34 nM", "result": 17, "unit": "%"},
      {"measurement": "percent inhibition of human Factor XI mRNA, relative to untreated control cells", "setting": "[5]; 4.69 nM", "result": 26, "unit": "%"},
      {"measurement": "percent inhibition of human Factor XI mRNA, relative to untreated control cells", "setting": "[5]; 9.375 nM", "result": 49, "unit": "%"},
      {"measurement": "percent inhibition of human Factor XI mRNA, relative to untreated control cells", "setting": "[5]; 18.75 nM", "result": 61, "unit": "%"},
      {"measurement": "percent inhibition of human Factor XI mRNA, relative to untreated control cells", "setting": "[5]; 37.5 nM", "result": 81, "unit": "%"},
      {"measurement": "percent inhibition of human Factor XI mRNA, relative to untreated control cells", "setting": "[5]; 75 nM", "result": 84, "unit": "%"}
    ]}
  ]
}
